Measurements taken from patent US9938273B2 (Plexxikon Inc., priority 2015, dated 2018).

Legend:
[1] = molecular target: T1, FLT3-ITD (Homo sapiens, UniProt P36888); test: AlphaScreen kinase assay with recombinant enzyme, FLT3-ITD; format: biochemical; settings: 8pt; read-out: FLT3_ITD 8pt: IC50
T1 sequence (P36888 1-993): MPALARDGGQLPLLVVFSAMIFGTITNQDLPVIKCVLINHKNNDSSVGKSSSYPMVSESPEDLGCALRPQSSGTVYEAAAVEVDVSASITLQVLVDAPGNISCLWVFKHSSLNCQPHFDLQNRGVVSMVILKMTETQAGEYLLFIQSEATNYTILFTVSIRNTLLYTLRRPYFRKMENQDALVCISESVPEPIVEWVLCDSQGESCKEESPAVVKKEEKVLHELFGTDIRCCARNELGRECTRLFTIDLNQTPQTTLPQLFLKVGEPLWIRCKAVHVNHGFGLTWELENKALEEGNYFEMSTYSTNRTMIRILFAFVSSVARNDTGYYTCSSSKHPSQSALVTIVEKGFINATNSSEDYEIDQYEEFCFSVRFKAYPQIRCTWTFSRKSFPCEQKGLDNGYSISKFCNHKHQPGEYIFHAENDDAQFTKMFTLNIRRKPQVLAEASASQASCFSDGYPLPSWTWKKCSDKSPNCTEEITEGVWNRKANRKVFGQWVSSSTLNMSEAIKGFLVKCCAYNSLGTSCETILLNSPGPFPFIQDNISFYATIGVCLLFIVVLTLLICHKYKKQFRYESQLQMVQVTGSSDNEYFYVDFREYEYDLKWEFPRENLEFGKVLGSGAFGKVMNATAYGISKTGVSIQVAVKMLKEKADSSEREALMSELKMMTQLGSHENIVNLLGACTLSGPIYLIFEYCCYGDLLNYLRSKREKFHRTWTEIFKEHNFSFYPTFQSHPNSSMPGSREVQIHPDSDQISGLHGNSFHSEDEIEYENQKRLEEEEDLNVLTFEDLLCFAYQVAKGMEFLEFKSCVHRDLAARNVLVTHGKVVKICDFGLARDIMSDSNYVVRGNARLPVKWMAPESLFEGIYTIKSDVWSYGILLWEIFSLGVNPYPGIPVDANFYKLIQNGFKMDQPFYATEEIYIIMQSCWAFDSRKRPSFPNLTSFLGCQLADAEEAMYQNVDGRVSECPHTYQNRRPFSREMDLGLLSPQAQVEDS
Procedure, shortened: (§1)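 Tyrosine phosphorylation of biotin-poly(Glu4-Tyr) substrate by recombinant enzyme is detected with PY20 acceptor and streptavidin donor beads after room-temperature incubations of 20 and 60 min. IC50 values were derived at a final 10 μM (FLT3-D835Y, FLT3-ITD) or 100 μM (c-KIT).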

[2] = molecular target: T2, c-KIT (Homo sapiens, UniProt P10721); test: AlphaScreen kinase assay with recombinant enzyme, c-KIT; format: biochemical; settings: 100ATP, 8pt, GMean
T2 construct: purchased Millipore 14-559K
Procedure, shortened: as §1

T2 sequence (P10721 26-976): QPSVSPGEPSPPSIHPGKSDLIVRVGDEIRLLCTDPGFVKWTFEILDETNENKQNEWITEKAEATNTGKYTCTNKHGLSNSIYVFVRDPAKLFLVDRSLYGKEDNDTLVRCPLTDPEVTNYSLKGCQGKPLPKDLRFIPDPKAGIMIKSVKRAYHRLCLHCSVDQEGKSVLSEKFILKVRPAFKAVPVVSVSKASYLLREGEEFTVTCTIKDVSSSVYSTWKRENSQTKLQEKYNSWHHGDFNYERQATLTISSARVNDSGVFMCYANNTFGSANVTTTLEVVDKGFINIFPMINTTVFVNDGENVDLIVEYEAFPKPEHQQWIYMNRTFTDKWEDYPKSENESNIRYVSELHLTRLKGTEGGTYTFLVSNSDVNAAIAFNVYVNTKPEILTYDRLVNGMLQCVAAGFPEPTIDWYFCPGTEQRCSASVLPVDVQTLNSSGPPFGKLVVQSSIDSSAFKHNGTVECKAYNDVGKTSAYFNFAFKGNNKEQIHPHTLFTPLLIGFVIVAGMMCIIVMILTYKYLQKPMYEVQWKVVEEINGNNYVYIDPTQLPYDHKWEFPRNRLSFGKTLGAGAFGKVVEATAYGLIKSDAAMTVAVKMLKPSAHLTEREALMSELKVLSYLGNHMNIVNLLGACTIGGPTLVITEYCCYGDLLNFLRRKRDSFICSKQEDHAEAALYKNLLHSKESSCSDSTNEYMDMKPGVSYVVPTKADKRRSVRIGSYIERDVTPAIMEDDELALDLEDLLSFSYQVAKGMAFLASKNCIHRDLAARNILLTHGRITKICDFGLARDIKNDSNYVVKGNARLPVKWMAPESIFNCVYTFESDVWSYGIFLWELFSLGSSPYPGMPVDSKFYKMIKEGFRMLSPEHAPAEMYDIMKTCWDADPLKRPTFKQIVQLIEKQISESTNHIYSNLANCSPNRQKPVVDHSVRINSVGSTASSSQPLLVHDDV

| IC50 [1] [µM] | IC50 [2] [µM] | Compound |
| --- | --- | --- |
| 0.0001 to 10 | 0.0001 to 10 | CNC(=O)Nc1ccc(-c2cnc3[nH]c(-c4ccccc4)cc3c2)cc1 [Compound P-0006, 1-methyl-3-[4-(2-phenyl-1H-pyrrolo[2,3-b]pyridin-5-yl)phenyl]urea] |
| 0.0001 to 10 | 0.0001 to 10 | NC1CCN(C(=O)c2n[nH]c3ccc(-c4cnc5[nH]c(-c6ccccc6)cc5c4)cc23)CC1 [Compound P-0012, (4-amino-1-piperidyl)-[5-(2-phenyl-1H-pyrrolo[2,3-b]pyridin-5-yl)-1H-indazol-3-yl]methanone] |
| 0.0001 to 10 | 0.0001 to 10 | NC1CCN(C(=O)c2cccc(-c3cnc4[nH]c(-c5ccccc5)cc4c3)n2)CC1 [Compound P-0013, (4-amino-1-piperidyl)-[6-(2-phenyl-1H-pyrrolo[2,3-b]pyridin-5-yl)-2-pyridyl]methanone] |
| 0.0001 to 10 | 0.0001 to 10 | N[C@H]1CCN(C(=O)c2cccc(-c3cnc4[nH]c(-c5ccccc5)cc4c3)n2)C1 [Compound P-0015, [(3S)-3-aminopyrrolidin-1-yl]-[6-(2-phenyl-1H-pyrrolo[2,3-b]pyridin-5-yl)-2-pyridyl]methanone] |
| 0.0001 to 10 | 0.0001 to 10 | N[C@H]1CCN(C(=O)c2n[nH]c3ccc(-c4cnc5[nH]c(-c6ccccc6)cc5c4)cc23)C1 [Compound P-0016, [(3S)-3-aminopyrrolidin-1-yl]-[5-(2-phenyl-1H-pyrrolo[2,3-b]pyridin-5-yl)-1H-indazol-3-yl]methanone] |
| 0.0001 to 10 | 10 to 50 | CC(C)(C)OC(=O)NC1CCN(C(=O)c2cccc(-c3cnc4[nH]c(-c5ccccc5)cc4c3)n2)CC1 [Compound P-0017, tert-butyl N-[1-[6-(2-phenyl-1H-pyrrolo[2,3-b]pyridin-5-yl)pyridine-2-carbonyl]-4-piperidyl]carbamate] |
| 0.0001 to 10 | 0.0001 to 10 | NC1CCC(NC(=O)c2cccc(-c3cnc4[nH]c(-c5ccccc5)cc4c3)n2)CC1 (stereo not drawn) [Compound P-0018, N-(4-aminocyclohexyl)-6-(2-phenyl-1H-pyrrolo[2,3-b]pyridin-5-yl)pyridine-2-carboxamide] |
| 0.0001 to 10 | 0.0001 to 10 | CC(=O)NC1CCN(C(=O)c2cccc(-c3cnc4[nH]c(-c5ccccc5)cc4c3)n2)CC1 [Compound P-0020, N-[1-[6-(2-phenyl-1H-pyrrolo[2,3-b]pyridin-5-yl)pyridine-2-carbonyl]-4-piperidyl]acetamide] |
| 0.0001 to 10 | 0.0001 to 10 | CN1CCC(NC(=O)c2n[nH]c3ccc(-c4cnc5[nH]c(-c6ccccc6)cc5c4)cc23)CC1 [Compound P-0022, N-(1-methyl-4-piperidyl)-5-(2-phenyl-1H-pyrrolo[2,3-b]pyridin-5-yl)-1H-indazole-3-carboxamide] |
| 0.0001 to 10 | 50 to 100 | O=C(c1cccc(-c2cnc3[nH]c(-c4ccccc4)cc3c2)n1)N1CCC(CO)CC1 [Compound P-0023, [4-(hydroxymethyl)-1-piperidyl]-[6-(2-phenyl-1H-pyrrolo[2,3-b]pyridin-5-yl)-2-pyridyl]methanone] |
| 0.0001 to 10 | 0.0001 to 10 | CCOC(=O)C1CCN(C(=O)c2cccc(-c3cnc4[nH]c(-c5ccccc5)cc4c3)n2)CC1 [Compound P-0025, ethyl 1-[6-(2-phenyl-1H-pyrrolo[2,3-b]pyridin-5-yl)pyridine-2-carbonyl]piperidine-4-carboxylate] |
| 0.0001 to 10 | 0.0001 to 10 | NCC1CCN(C(=O)c2cccc(-c3cnc4[nH]c(-c5ccccc5)cc4c3)n2)CC1 [Compound P-0026, [4-(aminomethyl)-1-piperidyl]-[6-(2-phenyl-1H-pyrrolo[2,3-b]pyridin-5-yl)-2-pyridyl]methanone] |
| 10 to 50 | 50 to 100 | CC1CCN(C(=O)c2n[nH]c3ccc(-c4cnc5[nH]c(-c6ccccc6)cc5c4)cc23)CC1 [Compound P-0027, (4-methyl-1-piperidyl)-[5-(2-phenyl-1H-pyrrolo[2,3-b]pyridin-5-yl)-1H-indazol-3-yl]methanone] |
| 0.0001 to 10 | 0.0001 to 10 | CNC1CCN(C(=O)c2n[nH]c3ccc(-c4cnc5[nH]c(-c6ccccc6)cc5c4)cc23)C1 (stereo not drawn) [Compound P-0028, [3-(methylamino)pyrrolidin-1-yl]-[5-(2-phenyl-1H-pyrrolo[2,3-b]pyridin-5-yl)-1H-indazol-3-yl]methanone] |
| 0.0001 to 10 | 0.0001 to 10 | CNC1CCN(C(=O)c2cccc(-c3cnc4[nH]c(-c5ccccc5)cc4c3)n2)C1 (stereo not drawn) [Compound P-0040, [3-(methylamino)pyrrolidin-1-yl]-[6-(2-phenyl-1H-pyrrolo[2,3-b]pyridin-5-yl)-2-pyridyl]methanone] |
| 0.0001 to 10 | 0.0001 to 10 | CNC1CCN(C(=O)c2cccc(-c3cnc4[nH]c(-c5cn(C)nc5C)cc4c3)n2)C1 (stereo not drawn) [Compound P-0049, [6-[2-(1,3-dimethylpyrazol-4-yl)-1H-pyrrolo[2,3-b]pyridin-5-yl]-2-pyridyl]-[3-(methylamino)pyrrolidin-1-yl]methanone] |
| 0.0001 to 10 | 0.0001 to 10 | c1ccc(-c2cc3cc(-c4cccc(OC5CCNCC5)n4)cnc3[nH]2)cc1 [Compound P-0050, 2-phenyl-5-[6-(4-piperidyloxy)-2-pyridyl]-1H-pyrrolo[2,3-b]pyridine] |
| 0.0001 to 10 | 0.0001 to 10 | CNC1CN(C(=O)c2cccc(-c3cnc4[nH]c(-c5ccccc5)cc4c3)n2)C1 [Compound P-0052, [3-(methylamino)azetidin-1-yl]-[6-(2-phenyl-1H-pyrrolo[2,3-b]pyridin-5-yl)-2-pyridyl]methanone] |
| 0.0001 to 10 | 0.0001 to 10 | N[C@H]1CCN(C(=O)c2ncc(-c3cnc4[nH]c(-c5ccccc5)cc4c3)s2)C1 [Compound P-0054, [(3S)-3-aminopyrrolidin-1-yl]-[5-(2-phenyl-1H-pyrrolo[2,3-b]pyridin-5-yl)thiazol-2-yl]methanone] |
| 0.0001 to 10 | 0.0001 to 10 | CNC1CCN(C(=O)c2cccc(-c3cnc4[nH]c(-c5ccc(F)cc5)cc4c3)n2)C1 (stereo not drawn) [Compound P-0055, [6-[2-(4-fluorophenyl)-1H-pyrrolo[2,3-b]pyridin-5-yl]-2-pyridyl]-[3-(methylamino)pyrrolidin-1-yl]methanone] |
| 0.0001 to 10 | 0.0001 to 10 | CN[C@@H]1CCN(C(=O)c2cccc(-c3cnc4[nH]c(-c5ccccc5)cc4c3)n2)C1 [Compound P-0058, [(3R)-3-(methylamino)pyrrolidin-1-yl]-[6-(2-phenyl-1H-pyrrolo[2,3-b]pyridin-5-yl)-2-pyridyl]methanone] |
| 0.0001 to 10 | 0.0001 to 10 | CNC1CCN(C(=O)c2cccc(-c3cnc4[nH]c(-c5ccnc(OC)c5)cc4c3)n2)C1 (stereo not drawn) [Compound P-0060, [6-[2-(2-methoxy-4-pyridyl)-1H-pyrrolo[2,3-b]pyridin-5-yl]-2-pyridyl]-[3-(methylamino)pyrrolidin-1-yl]methanone] |
| 0.0001 to 10 | 10 to 50 | CNC1CCN(C(=O)c2cccc(-c3cnc4[nH]c(-c5cnn(CC(F)(F)F)c5)cc4c3)n2)C1 (stereo not drawn) [Compound P-0061, [3-(methylamino)pyrrolidin-1-yl]-[6-[2-[1-(2,2,2-trifluoroethyl)pyrazol-4-yl]-1H-pyrrolo[2,3-b]pyridin-5-yl]-2-pyridyl]methanone] |
| 0.0001 to 10 | 10 to 50 | CNC1CCN(C(=O)c2cccc(-c3cnc4[nH]c(-c5cccc(C#N)c5)cc4c3)n2)C1 (stereo not drawn) [Compound P-0062, 3-[5-[6-[3-(methylamino)pyrrolidine-1-carbonyl]-2-pyridyl]-1H-pyrrolo[2,3-b]pyridin-2-yl]benzonitrile] |
| 0.0001 to 10 | 0.0001 to 10 | CNC1CCN(S(=O)(=O)c2cccc(-c3cnc4[nH]c(-c5ccccc5)cc4c3)n2)C1 (stereo not drawn) [Compound P-0063, N-methyl-1-[[6-(2-phenyl-1H-pyrrolo[2,3-b]pyridin-5-yl)-2-pyridyl]sulfonyl]pyrrolidin-3-amine] |
| 0.0001 to 10 | 0.0001 to 10 | CN1CCC(NC(=O)c2cccc(-c3cnc4[nH]c(-c5ccccc5)cc4c3)n2)C1 (stereo not drawn) [Compound P-0064, N-(1-methylpyrrolidin-3-yl)-6-(2-phenyl-1H-pyrrolo[2,3-b]pyridin-5-yl)pyridine-2-carboxamide] |
| 0.0001 to 10 | 0.0001 to 10 | CNC1CCN(C(=O)c2cccc(-c3cnc4[nH]c(C5=CCC(C)(C)CC5)cc4c3)n2)C1 (stereo not drawn) [Compound P-0070, [6-[2-(4,4-dimethylcyclohexen-1-yl)-1H-pyrrolo[2,3-b]pyridin-5-yl]-2-pyridyl]-[3-(methylamino)pyrrolidin-1-yl]methanone] |
